Measurements as given in patent US7132546B2, “Aniline derivatives or salts thereof and cytokine production inhibitors containing the same” (Ishihara Sangyo Kaisha, Ltd., priority 2000, dated 2006).

Key:
[1] = system: interleukin 5 (IL-5) production; assay: Cytokine production inhibitory effect: IL-5 production by murine spleen cells treated with anti-mouse CD3 antibody and IL-2 (ELISA); assay type: cell-based, Balb/c mice; details: test compound 100 ppm, anti-CD3 antibody + IL-2, 40 to 48 hours, read-out: IL-5 production inhibitory ratio (%)
Procedure: (§1) Murine spleen cells were treated with anti-mouse CD3 antibody and IL-2 to induce cytokine production. The test compounds were added to the cytokine production system to evaluate their inhibitory effect. Namely, anti-mouse CD3 antibody adjusted to from 10 to 20 μg/ml with borate buffered physiological saline (pH 8.5) was pipetted into a 96-well cell culture plate in an amount of 50 μl/well and left to stand at 4° C. for 18 hours. The unreacted solution was removed, washing with Hank's buffer solution was carried out once, and IL-2 adjusted to 10 ng/ml with a RPMI liquid containing 10% fetal bovine serum (FCS) was pipetted in an amount of 50 μl/well. For the negative control group, a solution alone without anti-CD3 antibody nor IL-2 was applied. Then, the diluted solution of each of the test compounds (concentration: 100 ppm unless otherwise specified) was pipetted in an amount of 50 μl/well, and a cell suspension of 1×10^7 cells/ml, prepared from spleen of Balb/c mice (female, 7 to 10 week old) was pipetted thereinto in an amount of 100 μl/well. After cultivation in an incubator (37° C., 5% carbon dioxide gas) for from 40 to 48 hours, the culture supernatant was recovered to measure the cytokine production amount by ELISA method.
(§2) With respect to interleukin 5 (IL-5) as a typical Th2 type cytokine and interferon γ (IFN-γ) as a typical Th1 type cytokine, measurements were carried out by the following methods, respectively. Namely, quantitative determination of IL-5 was carried out by the following ELISA method. First, rat anti-mouse IL-5 antibody (Endogen Code No. MM-550C) as a primary antibody was diluted with carbonate buffer solution (pH 9.5) to 1 μg/ml, and spread in a 96 well plate (IWAKI, Code No. 3860-096) in an amount of 50 μl/well for coating at 4° C. overnight (16 to 24 hours). Then, the plate was subjected to blocking at 37° C. for 2 hours by phosphate buffered physiological saline containing 10% FCS (pH 7.2) (blocking buffer solution) (250 μl/well). The plate was washed with PBS (washing buffer) containing 0.05% Tween 20 (Nacalai Tesque, Code No. 281-51) four times, and a diluted liquid of the culture supernatant was spread in an amount of 50 μl/well, followed by incubation at room temperature for 1 hour. For preparation of a standard line, recombinant mouse IL-5 (R&D systems, Code No. 405-ML) was employed. The plate was washed with a washing buffer four times, and biotin-labeled rat anti-mouse IL-5 antibody (Pharmingen, Code No. 18062D) as a secondary antibody diluted to 0.5 μg/ml with a blocking buffer containing 0.05% Tween 20 was added thereto (50 μl/well), followed by incubation at room temperature for 1 hour. The plate was washed with a washing buffer four times, strept avidin-labeled peroxidase (ProZyme, Code No. CJ30H001) diluted 800 times with a blocking buffer containing 0.05% Tween 20 was added thereto (50 μl/well), followed by reaction at room temperature for 15 minutes. The plate was washed with a washing buffer four times, and a […] substrate solution (SIGMA, Code No. T-8665) was added thereto in an amount of 100 μl/well for color developing for from 10 to 20 minutes. A 1M sulfuric acid solution was added thereto in an amount of 100 μl/well to terminate the reaction, and absorption (wavelength 450 nm) was measured by means of micro plate reader (SPECTRA max, Wako Pure Chemicals Industries, Ltd.). Quantitative determination of IFN-γ was carried out in the same manner as the measurement of IL-5, employing rat anti-mouse IFN-γ antibody (Pharmingen, Code No. 18181D) and biotin labeled rat anti-mouse IFN-γ antibody (Pharmingen, Code NO. 18112D), as a primary antibody and a secondary antibody, respectively. For preparation of a standard line, recombinant mouse IFN-γ (GENZYME, Code No. 3485) was employed. The experiment was carried out in duplicate, and the average of the cytokine production amount was obtained. […]

[2] = system: interferon γ (IFN-γ) production; assay: Cytokine production inhibitory effect: IFN-γ production by murine spleen cells treated with anti-mouse CD3 antibody and IL-2 (ELISA); assay type: cell-based, Balb/c mice; details: test compound 100 ppm, anti-CD3 antibody + IL-2, 40 to 48 hours, read-out: IFN-γ production inhibitory ratio (%)
Procedure: as §1, §2

Compound | melting point | inhibition at 100 ppm [1] | inhibition at 100 ppm [2]
O=C(Nc1ccc(S(=O)(=O)c2ncc(C(F)(F)F)cc2Cl)cc1)c1cc([N+](=O)[O-])ccc1Cl [compound 104] |  | 100% | 100%
O=C(Nc1ccccc1Oc1ccccc1)c1cc([N+](=O)[O-])ccc1Cl [compound 37] | 110 °C | 97% | 100%
Cc1cc(C23CC4CC(CC(C4)C2)C3)ccc1NC(=O)c1ccc(Cl)cc1Cl [compound 3] | 211 °C | 79% | 92%
O=C(Nc1ccc(/N=N/c2ccccc2)cc1)c1cc([N+](=O)[O-])ccc1Cl [compound 67] | 187 °C | 99% | 100%
O=C(Nc1ccccc1C(F)(F)F)c1cc([N+](=O)[O-])ccc1Cl [compound 39] |  | 97% | 100%
O=C(Nc1ccc([S+]([O-])c2ncc(C(F)(F)F)cc2Cl)cc1)c1cc([N+](=O)[O-])ccc1Cl (stereo not drawn) [compound 103] |  | 100% | 100%
O=C(Nc1ccc(Oc2ccc(C(F)(F)F)cn2)c(Cl)c1)c1cc(Cl)cc(Cl)c1O [compound 16] | 176 to 178 °C | 100% | 
O=C(Nc1ccc(Oc2ccc(C(F)(F)F)cc2Cl)cc1)c1cc([N+](=O)[O-])ccc1F [compound 95] |  | 100% | 100%
O=C(Nc1ccc(NC23CC4CC(CC(C4)C2)C3)nc1)c1cc([N+](=O)[O-])ccc1Cl [compound 147] |  | 99% | 100%
Cc1cc(C23CC4CC(CC(C4)C2)C3)ccc1N(C)C(=O)c1cc([N+](=O)[O-])ccc1Cl [compound 102] |  | 100% | 100%
O=C(Nc1ccc(OC23CC4CC(CC(C4)C2)C3)cc1)c1cc([N+](=O)[O-])ccc1Cl [compound 134] |  | 97% | 98%
O=C(Nc1ccc(OC2C3CC4CC(C3)CC2C4)nc1)c1cc([N+](=O)[O-])ccc1Cl (stereo not drawn) [compound 124] |  | 100% | 100%
O=C(Nc1ccc(Oc2ccc(C(F)(F)F)cn2)c(Cl)c1)c1ccc(Oc2ccc(C(F)(F)F)cn2)c(Cl)c1 [compound 72] | 206 to 209 °C | 51% | 
O=C(Nc1ccc(Nc2ccccc2)cc1)c1cc([N+](=O)[O-])ccc1Cl [compound 65] |  | 100% | 100%
O=C(Nc1ccc(Oc2ccc(C(F)(F)F)cn2)c(Cl)c1)c1ccccc1F [Compound No. 13] | 141 to 143 °C | 36% | 
O=C(Nc1ccc(Oc2ccc(C(F)(F)F)cn2)c(Cl)c1)c1ccccc1 [compound 14] | 170 to 172 °C | 46% | 
O=C(Nc1ccc(Oc2ncc(C(F)(F)F)cc2Cl)c(C2CCCCC2)c1)c1cc([N+](=O)[O-])ccc1Cl [compound 114] |  | 100% | 100%
Cc1ccccc1NC(=O)c1cc([N+](=O)[O-])ccc1Cl [compound 19] |  | 96% | 88%

The next lines start with results.

melting point | Compound | inhibition at 100 ppm [1] | inhibition at 100 ppm [2]
207 to 208 °C | O=C(Nc1ccc(CSc2ncc(C(F)(F)F)cc2Cl)cc1)c1cc([N+](=O)[O-])ccc1Cl [compound 82] | 90% | 99%
165 to 167 °C | O=C(Nc1ccc(Oc2ccc(C(F)(F)F)cn2)c(Cl)c1)c1ccccc1O [compound 15] | 99% | 100%
226 to 229 °C | COC(=O)c1cc(NC(=O)c2cc([N+](=O)[O-])ccc2Cl)ccc1Oc1ncc(C(F)(F)F)cc1Cl [compound 107] | 99% | 97%
194 to 197 °C | O=C(Nc1ccc(Oc2ncc(C(F)(F)F)cc2Cl)c(O)c1)c1cc([N+](=O)[O-])ccc1Cl [compound 126] | 100% | 100%
186 to 188 °C | O=C(Nc1ccc(Oc2ccc(C(F)(F)F)cn2)c(Cl)c1)c1ccc(Cl)cc1 [compound 5] | 76% | 83%
233 °C | Cc1cc(C23CC4CC(CC(C4)C2)C3)ccc1NC(=O)c1cc(Cl)ccc1[N+](=O)[O-] [compound 57] | 90% | 98%
224 to 226 °C | O=[N+]([O-])c1ccc(Cl)c(S(=O)(=O)Nc2ccc(Sc3ncc(C(F)(F)F)cc3Cl)cc2)c1 [compound 90] | 100% | 100%
239 to 244 °C | NC(=O)c1cc(NC(=O)c2cc([N+](=O)[O-])ccc2Cl)ccc1Oc1ncc(C(F)(F)F)cc1Cl [compound 116] | 100% | 99%
69 °C | Cc1cc(C23CC4CC(CC(C4)C2)C3)ccc1NC(=O)c1cc(C(F)(F)F)ccc1Cl [compound 70] | 98% | 99%
262 °C | O=C(Nc1ccc(C23CC4CC(CC(C4)C2)C3)cc1)c1cc([N+](=O)[O-])ccc1Cl [compound 21] | 96% | 89%
224 °C | Cc1cc(C23CC4CC(CC(C4)C2)C3)ccc1NC(=O)c1c(Cl)ccc([N+](=O)[O-])c1Cl [compound 53] | 94% | 93%
168 to 170 °C | O=C(Nc1ccc(Oc2ncc(C(F)(F)F)cc2Cl)cc1)c1cc([N+](=O)[O-])ccc1F [compound 98] | 96% | 99%
168 °C | O=C(Nc1cccc(C(F)(F)F)c1)c1cc([N+](=O)[O-])ccc1Cl [compound 33] | 100% | 100%
146 to 150 °C | O=C(Nc1ccc(S(=O)(=O)NC2=NC3C=CC=CC3N=C2)cc1)c1cc([N+](=O)[O-])ccc1Cl (stereo not drawn) [compound 138] | 99% | 100%
235 to 237 °C | O=C(Nc1ccc(Oc2ncc(C(F)(F)F)cc2Cl)c(N2CCCC2)c1)c1cc([N+](=O)[O-])ccc1Cl [compound 130] | 100% | 99%
145 to 147 °C | O=C(Nc1ccc(Oc2ccc(C(F)(F)F)cn2)c(Cl)c1)c1ccc(F)cc1F [compound 11] | 37% | 
200 °C | Cc1cc(C23CC4CC(CC(C4)C2)C3)ccc1NS(=O)(=O)c1cc(Cl)ccc1Cl [compound 24] | 100% | 
168 to 169 °C | O=C(Nc1ccc(Oc2ccc(C(F)(F)F)cn2)c(Cl)c1)c1ccccc1Cl [compound 71] | 89% | 
233 to 236 °C | O=C(Nc1ccc(Oc2ncc(C(F)(F)F)cc2Cl)c([N+](=O)[O-])c1)c1cc([N+](=O)[O-])ccc1Cl [compound 108] |  | 
174 to 176 °C | O=C(Nc1ccc(Oc2ccc(C(F)(F)F)cn2)c(Cl)c1)c1ccc(F)cc1 [Compound No. 12] | 33% | 
